Three compounds from ChEMBL document CHEMBL3580538, “Cytotoxic and antiviral nitrobenzoyl sesquiterpenoids from the marine-derived fungus Aspergillus ochraceus Jcma1F17” (Medchemcomm, 2014) can be followed below.

One assay concerns NCI-H1975. As to the kind of experiment: Cytotoxicity against human NCI-H1975 cells assessed as cell viability after 72 hrs by CCK8 assay. The class given is functional, cell-based. Particulars: NCI-H1975, 72 h; call rule not given here.
The test system of assay [1] is Mycobacterium tuberculosis. As to the kind of experiment: Antituberculosis activity against Mycobacterium tuberculosis H37Ra after 3 days by autoluminescent assay. Format: functional, organism-based.
A further assay deals with Enterovirus. As to the kind of experiment: Antiviral activity against EV71 infected in african green monkey Vero cells assessed as reduction in virus-induced cytopathic effect after 72 to 96 hrs by CCK8 assay. The class given is functional, organism-based. Particulars: Enterovirus, 71, Vero.
Another assay has as its system HL-60. As to the kind of experiment: Cytotoxicity against human HL60 cells assessed as cell viability after 72 hrs by CCK8 assay. The class given is functional, cell-based. As to conditions: HL-60, 72 h. (In general: Formazan colour is commonly taken as a measure of viable cells.)
For another assay, the system named is K562. As to the kind of experiment: Cytotoxicity against human K562 cells assessed as cell viability after 72 hrs by CCK8 assay. Particulars: K562, 72 h. The class given is functional, cell-based.
Another assay deals with U-937. As to the kind of experiment: Cytotoxicity against human U937 cells assessed as cell viability after 72 hrs by CCK8 assay. The class given is functional, cell-based. Particulars: U-937, 72 h.
A short description of assay [2]: Cytotoxicity against human BGC823 cells assessed as cell viability after 72 hrs by CCK8 assay. The class given is functional, cell-based. As to conditions: BGC-823, 72 h.
A short description of assay [3]: Cytotoxicity against human HuH7 cells assessed as cell viability after 72 hrs by CCK8 assay. The class given is functional, cell-based. Particulars: Huh-7, 72 h.
The subject of the next assay is HeLa. As to the kind of experiment: Cytotoxicity against human HeLa cells assessed as cell viability after 72 hrs by CCK8 assay. The class given is functional, cell-based.
Assay [4] in a line: Antiviral activity against Influenza A virus A/Hong Kong/8/68 H3N2 infected in MDCK cells assessed as reduction in virus-induced cytopathic effect after 3 days by CCK8 assay. Particulars: 72 h. The class given is functional, cell-based, Influenza A virus (A/Hong Kong/8/1968([…])). Background: Damage to the host cells serves as the signal in cytopathic effect assays.
For a further assay, the system named is A549. As to the kind of experiment: Cytotoxicity against human A549 cells assessed as cell viability after 72 hrs by CCK8 assay. Format: functional, cell-based. As to conditions: A549, 72 h.
The next assay relates to MCF7. As to the kind of experiment: Cytotoxicity against human MCF7 cells assessed as cell viability after 72 hrs by CCK8 assay. Format: functional, cell-based. As to conditions: MCF7, 72 h.
The next assay deals with MOLT-4. As to the kind of experiment: Cytotoxicity against human MOLT4 cells assessed as cell viability after 72 hrs by CCK8 assay. The class given is functional, cell-based. As to conditions: MOLT-4, 72 h.

pIC50: −log10 of the molar value.

Usually pIC50 stands for the IC50 on a negative log10 scale, so that one unit is a factor of ten. Turning to `CC(/C=C/C(=O)NO)=C\[C@@H](C)C(=O)c1ccc(N(C)C)cc1` [TRICHOSTATIN], the pIC50 in the assay with NCI-H1975 is 7.05; with Enterovirus, 6.22; in the assay with HL-60 it was 7.52; with K562, 6.80; with U-937 it was 7.30; in assay [2] it was 7.10. Further, the negative logarithm of the IC50 (pIC50) is 7.05 in [3], 7.00 in the assay with HeLa and 8.10 in [4]. For the same compound, the IC50 entry in assay [1] is recorded as “Not Active”.
Turning to `C[C@]1(COC(=O)c2ccc([N+](=O)[O-])cc2)CCC[C@@]2(C)[C@H]1[C@H](O)C=C1C(=O)OC[C@@]12O`, the pIC50 in the assay on A549 was 5.62; in the assay with MCF7, 5.37; with NCI-H1975, 5.68; in the assay on Enterovirus, 5.03; with HL-60, 5.61; in the assay with K562, 5.36. Moreover, the pIC50 in the assay on U-937 was 5.71; in the assay with MOLT-4 it was 5.62; in [2] it was 5.63; in assay [3], 5.48; in the assay with HeLa, 5.21; in assay [4] it was 4.77. In addition, the IC50 result in assay [1] is given as “Not Active”.
On to `C[C@]1(CO)CCC[C@@]2(C)[C@H]1[C@H](OC(=O)c1ccc([N+](=O)[O-])cc1)C=C1C(=O)OC[C@@]12O`, for which the pIC50 in the assay on A549 was 5.54; in the assay with MCF7, 5.22; in the assay with NCI-H1975, 5.33; in the assay on Enterovirus, 4.30; in the assay on HL-60, 5.63; with K562 it was 5.32. Also, the pIC50 with U-937 was 5.40; in the assay with MOLT-4, 5.68; in assay [2] it was 5.56; in assay [3] it was 5.63; with HeLa, 5.20; in [4], 4.30. Also, in assay [1], the IC50 result was “Not Active”.
